# Data published in ChEMBL document CHEMBL3272053, “(exo, exo)-2-Aryltropane-3-carboxylic esters, hypoglycemic agents with accompanying analgesic activity” (J Med Chem, 1978).
# Columns and labels:
# Mus musculus [1] = assay: Toxicity in Swiss-Webster mouse assessed as mortality at 75 mg/kg, sc; type: organism-based; parameters: dose 75 mg/kg, route subcutaneous; conditions: in vivo
# Rattus norvegicus [2] = assay: Hypoglycemic activity in glucose loaded Sprague-Dawley rat assessed as reduction of blood glucose level at 88 mg/kg, po measured at 1.5 hrs relative to control; type: functional; parameters: scale not given: the % may be the effect or the level left
# Rattus norvegicus [3] = assay: Toxicity in po dosed Sprague-Dawley rat assessed as catalepsy administered 15 mins prior to testing; type: organism-based; conditions: in vivo, 0.25 h
# Rattus norvegicus [4] = assay: Toxicity in Sprague-Dawley rat assessed as catalepsy at 32 mg/kg, po administered 15 mins prior to testing in presence of naloxone hydrochloride; type: organism-based; parameters: dose 32 mg/kg, route oral; conditions: in vivo, 0.25 h
# Rattus norvegicus [5] = assay: Toxicity in Sprague-Dawley rat assessed as catalepsy at 32 mg/kg, po administered 15 mins prior to testing; type: organism-based; parameters: dose 32 mg/kg, route oral; conditions: in vivo, 0.25 h
# Canis familiaris [6] = assay: Toxicity in nalorphine-treated dog assessed as reduction of pulmonary ventilation rate at 100 mg/kg, im measured within 5 mins; type: organism-based, Canis lupus familiaris; parameters: dose 100 mg/kg, route intramuscular; conditions: in vivo
# Rattus norvegicus [7] = assay: Hypoglycemic activity in glucose loaded Sprague-Dawley rat assessed as reduction of blood glucose level at 50 mg/kg, po measured at 1 hr relative to control; type: functional; parameters: scale not given: the % may be the effect or the level left
# Canis familiaris [8] = assay: Toxicity in dog assessed as stopped breathing at 100 mg/kg, im measured after 3 mins; type: organism-based, Canis lupus familiaris; parameters: dose 100 mg/kg, route intramuscular; conditions: in vivo, 0.05 h
# Rattus norvegicus [9] = assay: Narcotic analgesic activity in po dosed fasted Sprague-Dawley rat measured at 60 mins by D'Amour-Smith tail-flick test; type: functional; conditions: Rattus norvegicus, Sprague-Dawley, Tail, po, 1 h; read-out: ED50
# Rattus norvegicus [10] = assay: Toxicity in morphine-treated Sprague-Dawley rat assessed as catalepsy at 32 mg/kg, po administered 15 mins prior to testing; type: organism-based; parameters: dose 32 mg/kg, route oral; conditions: in vivo, 0.25 h
# Canis familiaris [11] = assay: Toxicity in nalorphine-treated dog assessed as stopped breathing at 100 mg/kg, im measured after 3 mins; type: organism-based, Canis lupus familiaris; parameters: dose 100 mg/kg, route intramuscular; conditions: in vivo, 0.05 h
# Mus musculus [12] = assay: Toxicity in po dosed Swiss-Webster mouse assessed as stimulation of straub tail after 15 to 25 mins; type: organism-based; conditions: in vivo
# Mus musculus [13] = assay: Analgesic activity in po dosed Swiss-Webster mouse assessed as reduction of acetylcholine-induced writhing; type: functional
# Canis familiaris [14] = assay: Toxicity in dog assessed as effect on pulmonary ventilation rate at 150 mg/kg, im measured after 4 hrs; type: organism-based, Canis lupus familiaris; parameters: dose 150 mg/kg, route intramuscular; conditions: in vivo
# Rattus norvegicus [15] = assay: Hypoglycemic activity in fasted Sprague-Dawley rat assessed as reduction of blood glucose level at 50 mg/kg, po measured at 1.5 hrs relative to control; type: functional; parameters: scale not given: the % may be the effect or the level left
# [16] = Drug metabolism in glucose loaded Sprague-Dawley rat urine assessed as formation of (7)- (exo,exo)-methyl 2-(thiophen-2-yl)-8-azabicyclo[3.2.1]octane-3-carboxylate hydrochloride at 20 mg, po administered 3 to 6 hrs measured for 24 hrs by TLC/mass spectrographic analysis; type: ADME, organism-based; conditions: in vivo
# Rattus norvegicus [17] = assay: Hypoglycemic activity in glucose loaded Sprague-Dawley rat assessed as reduction of blood glucose level at 50 mg/kg, po measured at 1.5 hrs relative to control; type: functional; parameters: scale not given: the % may be the effect or the level left
# Mus musculus [18] = assay: Toxicity in naloxone hydrochloride-treated Swiss-Webster mouse assessed as stimulation of straub tail at 300 mg/kg, po after 15 to 25 mins; type: organism-based; parameters: dose 300 mg/kg, route oral; conditions: in vivo
# Rattus norvegicus [19] = assay: Hypoglycemic activity in glucose loaded Sprague-Dawley rat assessed as reduction of blood glucose level at 88 mg/kg, po measured at 0.5 hrs relative to control; type: functional; parameters: scale not given: the % may be the effect or the level left
# Rattus norvegicus [20] = assay: Hypoglycemic activity in glucose/glycogen loaded Sprague-Dawley rat assessed as reduction of glucose level per 100 mL of blood at 88 mg/kg, po measured at 2 hrs (reference value: 102 +/- 7 mg/100 mL); type: functional
# Rattus norvegicus [21] = assay: Hypoglycemic activity in fasted Sprague-Dawley rat assessed as reduction of blood glucose level at 88 mg/kg, po measured at 0.5 hrs relative to control; type: functional; parameters: scale not given: the % may be the effect or the level left
# Rattus norvegicus [22] = assay: Hypoglycemic activity in fasted Sprague-Dawley rat assessed as reduction of blood glucose level at 50 mg/kg, po measured at 1 hr relative to control; type: functional; parameters: scale not given: the % may be the effect or the level left
# Canis familiaris [23] = assay: Toxicity in dog assessed as respiratory depression at 150 mg/kg, im; type: organism-based, Canis lupus familiaris; parameters: dose 150 mg/kg, route intramuscular; conditions: in vivo
# Rattus norvegicus [24] = assay: Hypoglycemic activity in glucose/glycogen loaded Sprague-Dawley rat assessed as reduction of blood glucose level at 88 mg/kg, po measured at 0.5 hrs relative to control; type: functional; parameters: scale not given: the % may be the effect or the level left
# Canis familiaris [25] = assay: Toxicity in nalorphine-treated dog assessed as reduction of pulmonary ventilation rate at 100 mg/kg, im measured within 1 min; type: organism-based, Canis lupus familiaris; parameters: dose 100 mg/kg, route intramuscular; conditions: in vivo
# Rattus norvegicus [26] = assay: Narcotic analgesic activity in sc dosed fed Sprague-Dawley rat measured at 30 mins by D'Amour-Smith tail-flick test; type: functional
# Rattus norvegicus [27] = assay: Toxicity in Sprague-Dawley rat assessed as induction of physical dependence by measuring occurrence of abstinence signs at 100 mg/kg/24 hrs, ip administered as 2 days of infusion prior to naloxone-precipitated withdrawal; type: organism-based; parameters: route intraperitoneal; conditions: in vivo
# Rattus norvegicus [28] = assay: Hypoglycemic activity in fasted Sprague-Dawley rat assessed as reduction of blood glucose level at 50 mg/kg, po measured at 0.5 hrs relative to control; type: functional; parameters: scale not given: the % may be the effect or the level left
# Rattus norvegicus [29] = assay: Hypoglycemic activity in fasted Sprague-Dawley rat assessed as reduction of blood glucose level at 50 mg/kg, po measured at 2 hrs relative to control; type: functional; parameters: scale not given: the % may be the effect or the level left
# Rattus norvegicus [30] = assay: Hypoglycemic activity in glucose loaded Sprague-Dawley rat assessed as reduction of blood glucose level at 50 mg/kg, po measured at 2 hrs relative to control; type: functional; parameters: scale not given: the % may be the effect or the level left
# Mus musculus [31] = assay: Analgesic activity in sc dosed Swiss-Webster mouse assessed as reduction of acetylcholine-induced writhing; type: functional; conditions: Mus musculus, Swiss-Webster, sc; read-out: ED50
# Rattus norvegicus [32] = assay: Toxicity in Sprague-Dawley rat assessed as severe convulsion at 240 mg/kg, sc; type: organism-based; parameters: dose 240 mg/kg, route subcutaneous; conditions: in vivo
# Rattus norvegicus [33] = assay: Hypoglycemic activity in glucose/glycogen loaded Sprague-Dawley rat assessed as reduction of blood glucose level at 88 mg/kg, po measured at 1.5 hrs relative to control; type: functional; parameters: scale not given: the % may be the effect or the level left
# Rattus norvegicus [34] = assay: Toxicity in Sprague-Dawley rat assessed as induction of morphine physical dependence by measuring occurrence of abstinence signs at 32 times of morphine dose 12.5 mg/kg/24 hrs administered on day 6 post morphine withdrawal; type: organism-based; conditions: in vivo
# Canis familiaris [35] = assay: Toxicity in dog assessed as reduction of pulmonary ventilation rate at 100 mg/kg, im measured within 5 mins; type: organism-based, Canis lupus familiaris; parameters: dose 100 mg/kg, route intramuscular; scale not given: the % may be the effect or the level left; conditions: in vivo
# Rattus norvegicus [36] = assay: Hypoglycemic activity in Sprague-Dawley rat assessed as reduction of blood glucose level at 88 mg/kg, po by glucagon-impaired glucose disposal test relative to control; type: functional; parameters: scale not given: the % may be the effect or the level left; conditions: 88 mg/kg
# Rattus norvegicus [37] = assay: Hypoglycemic activity in fasted Sprague-Dawley rat assessed as reduction of blood glucose level at 88 mg/kg, po measured at 1 hr relative to control; type: functional; parameters: scale not given: the % may be the effect or the level left
# Rattus norvegicus [38] = assay: Hypoglycemic activity in glucose/glycogen loaded Sprague-Dawley rat assessed as reduction of blood glucose level at 88 mg/kg, po measured at 1 hr relative to control; type: functional; parameters: scale not given: the % may be the effect or the level left
# Rattus norvegicus [39] = assay: Hypoglycemic activity in glucose loaded Sprague-Dawley rat assessed as reduction of glucose level per 100 mL of blood at 88 mg/kg, po measured at 2 hrs (reference value: 99 +/- 2 mg/100 mL); type: functional
# Rattus norvegicus [40] = assay: Hypoglycemic activity in fasted Sprague-Dawley rat assessed as reduction of blood glucose level at 88 mg/kg, po measured at 1.5 hrs relative to control; type: functional; parameters: scale not given: the % may be the effect or the level left
# Canis familiaris [41] = assay: Toxicity in dog assessed as reduction of pulmonary ventilation rate at 100 mg/kg, im measured within 20 mins relative to control; type: organism-based, Canis lupus familiaris; parameters: dose 100 mg/kg, route intramuscular; scale not given: the % may be the effect or the level left; conditions: in vivo
# Rattus norvegicus [42] = assay: Toxicity in Sprague-Dawley rat assessed as induction of physical dependence by measuring occurrence of abstinence signs administered as infusion at 0.3 log interval doses up to maximum tolerated dose 800 mg/kg/24 hrs, ip for 6 days prior to abrupt withdrawal; type: organism-based; parameters: route intraperitoneal; conditions: in vivo
# Rattus norvegicus [43] = assay: Hypoglycemic activity in glucose loaded Sprague-Dawley rat assessed as reduction of glucose level per 100 mL of blood at 50 mg/kg, po measured at 0.5 hrs (reference value: 176 +/- 8 mg/100 mL); type: functional
# Rattus norvegicus [44] = assay: Narcotic analgesic activity in po dosed fasted Sprague-Dawley rat measured at 15 mins by D'Amour-Smith tail-flick test; type: functional; conditions: 0.25 h
# Rattus norvegicus [45] = assay: Hypoglycemic activity in glucose loaded Sprague-Dawley rat assessed as reduction of blood glucose level at 88 mg/kg, po measured at 1 hr relative to control; type: functional; parameters: scale not given: the % may be the effect or the level left
# Rattus norvegicus [46] = assay: Hypoglycemic activity in fasted Sprague-Dawley rat assessed as reduction of blood glucose level at 88 mg/kg, po measured at 2 hrs relative to control; type: functional; parameters: scale not given: the % may be the effect or the level left
compound,measurement,setting,value
COC(=O)[C@H]1C[C@H]2CC[C@H]([C@H]1c1cccs1)N2C.Cl (racemic),Activity,Mus musculus [1],Non-toxic
same,Activity,Rattus norvegicus [2],32%
same,ED50,Rattus norvegicus [3],18.6 mg/kg
same,Activity,Rattus norvegicus [4],Non-toxic
same,Activity,Rattus norvegicus [5],65%
same,Activity,Canis familiaris [6],Non-toxic
same,Activity,Rattus norvegicus [7],40%
same,Activity,Canis familiaris [8],Non-toxic
same,ED50,Rattus norvegicus [9],83 mg/kg
same,Activity,Rattus norvegicus [10],20%
same,Activity,Canis familiaris [11],Non-toxic
same,ED50,Mus musculus [12],138 mg/kg
same,ED50,Mus musculus [13],35 mg/kg
same,Activity,Canis familiaris [14],Non-toxic
same,Activity,Rattus norvegicus [15],43%
same,Drug metabolism,[16],metabolite_detected
same,Activity,Rattus norvegicus [17],53%
same,Activity,Mus musculus [18],Non-toxic
same,Activity,Rattus norvegicus [19],55%
same,Activity,Rattus norvegicus [20],104 mg
same,Activity,Rattus norvegicus [21],45%
same,Activity,Rattus norvegicus [22],40%
same,Activity,Canis familiaris [23],Non-toxic
same,Activity,Rattus norvegicus [24],62%
same,Activity,Canis familiaris [25],Non-toxic
same,ED50,Rattus norvegicus [26],100 mg/kg
same,Activity,Rattus norvegicus [27],Non-toxic
same,Activity,Rattus norvegicus [28],34%
same,Activity,Rattus norvegicus [29],37%
same,Activity,Rattus norvegicus [30],50%
same,ED50,Mus musculus [31],12 mg/kg
same,Activity,Rattus norvegicus [32],Toxic
same,Activity,Rattus norvegicus [33],22%
same,Activity,Rattus norvegicus [34],Non-toxic
same,Activity,Canis familiaris [35],65%
same,Activity,Rattus norvegicus [36],63%
same,Activity,Rattus norvegicus [37],38%
same,Activity,Rattus norvegicus [38],38%
same,Activity,Rattus norvegicus [39],100 mg
same,Activity,Rattus norvegicus [40],27%
same,Activity,Canis familiaris [41],40%
same,Activity,Rattus norvegicus [42],Non-toxic
same,Activity,Rattus norvegicus [43],172 mg
same,ED50,Rattus norvegicus [44],29 mg/kg
same,Activity,Rattus norvegicus [45],55%
same,Activity,Rattus norvegicus [46],24%
